What follows are compounds tested on NLRP3 inflammasome (assay: IL-1β Secretion Assay (NLRP3-dependent IL-1β secretion in PMA-differentiated THP-1 cells, nigericin activation, HTRF)). Settings: Homo sapiens, THP-1, THP-1 cells, 100 ng/mL PMA 24 h, compound 20 h, 2.5 μM Nigericin 3 h; read-out: IC50 IL-1β Inhibition.
Assay type: cell-based
In short: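 IL-1β release, quantified by HTRF after nigericin activation of the NLRP3 inflammasome, was the read-out. A logistic fit of percent inhibition gave IC50.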
In the case of CN1CCC[C@@H](Nc2nnc(-c3c(F)cc(C(F)(F)F)cc3OC(F)F)c3cccn23)C1 [Compound I-487], the IC50 is reported as 1 to 10 nM. With Cc1cc(F)c(-c2nnc(N[C@@H]3CCCN(C4CCOC4)C3)n3cccc23)c(OC(F)F)c1 (some centres unmarked) [Compound I-488] the IC50 was 10 to 100 nM. Cc1cc(O)c(-c2nnc(N[C@@H]3CCCN(C4CCOC4)C3)n3cccc23)c(F)c1 (some centres unmarked) [Compound I-489] showed an IC50 of 1 to 10 nM. Oc1cc(Br)ccc1-c1nnc(N[C@@H]2CCCNC2)n2cccc12 [Compound I-490, (R)-5-Bromo-2-(4-(piperidin-3-ylamino)pyrrolo[1,2-d][1,2,4]triazin-1-yl) phenol] gave an IC50 of 1 to 10 nM. In the case of OCCN1CCC[C@@H](Nc2nnc(-c3ccc(C(F)(F)F)cc3C(F)(F)F)c3cccn23)C1 [Compound I-491], the IC50 is reported as 1 to 10 nM. C[C@@H](O)CNc1nnc(-c2ccc(C(F)(F)F)cc2C(F)(F)F)c2cccn12 [Compound I-492] gave an IC50 of 1 to 10 nM. With CC(C)N1CCC[C@@H](Nc2nnc(-c3ccc(C(F)(F)F)cc3OC(F)F)c3cccn23)C1 [Compound I-493] the IC50 was 1 to 10 nM. In the case of FC(F)Oc1cc(C(F)(F)F)ccc1-c1nnc(N[C@@H]2CCCN(CC(F)(F)F)C2)n2cccc12 [Compound I-494], the IC50 is reported as 100 to 300 nM. Work on CCN1CCC[C@@H](Nc2nnc(-c3c(O)cc(C4CC4)cc3F)c3cccn23)C1 [Compound I-495] yielded an IC50 of under 1 nM. In the case of C[C@@H](O)CNc1nnc(-c2c(O)cc(C3CC3)cc2F)c2cccn12 [Compound I-496], the IC50 is reported as 10 to 100 nM. CCN1CCC[C@@H](Nc2nnc(-c3c(O)cc(C)cc3F)c3cccn23)C1 [Compound I-498] showed an IC50 of under 1 nM. Cc1cc(O)c(-c2nnc(NC[C@@H](C)O)n3cccc23)c(F)c1 [Compound I-499] was tested, and the IC50 was 10 to 100 nM. In the case of C[C@H](O)CNc1nnc(-c2c(O)cc(C3CC3)cc2F)c2cccn12 [Compound I-500], the IC50 is reported as 10 to 100 nM. [2H]C([2H])([2H])Oc1ccc(-c2nnc(N[C@@H]3CCCN(C)C3)n3cccc23)c(O)c1 [Compound I-501, (R)-5-(Methoxy-d3)-2-(4-((1-methylpiperidin-3-yl)amino)pyrrolo[1,2-d][1,2,4]triazin-1-yl)phenol] was tested, and the IC50 was under 1 nM. Work on COc1cc(O)c(-c2nnc(N[C@@H]3C[C@@H](F)CN(C)C3)n3cccc23)c(F)c1 [Compound I-502] yielded an IC50 of under 1 nM. In the case of CN1CCC[C@@H](Nc2nnc(-c3ccc(Br)cc3OC(F)(F)F)c3cccn23)C1 [Compound I-504], the IC50 is reported as under 1 nM. CCN1CCC[C@@H](Nc2nnc(-c3ccc(Cl)cc3C(F)F)c3cccn23)C1 [Compound I-505] gave an IC50 of 10 to 100 nM. Work on OCCN1CCC[C@@H](Nc2nnc(-c3ccc(Cl)cc3C(F)F)c3cccn23)C1 [Compound I-506] yielded an IC50 of 10 to 100 nM. CN1C[C@H](F)C[C@@H](Nc2nnc(-c3ccc(C4CC4)cc3C(F)F)c3cccn23)C1 [Compound I-507] showed an IC50 of 10 to 100 nM. Compound CCN1CCC[C@@H](Nc2nnc(-c3ccc(C4CC4)cc3C(F)F)c3cccn23)C1 [Compound I-508] has an IC50 of 1 to 10 nM. Work on OCCN1CCC[C@@H](Nc2nnc(-c3ccc(C4CC4)cc3C(F)F)c3cccn23)C1 [Compound I-509] yielded an IC50 of 1 to 10 nM. In the case of Oc1cc(C2CC2)cc(F)c1-c1nnc(N[C@@H]2CCCN(CC(F)F)C2)n2cccc12 [Compound I-510], the IC50 is reported as 10 to 100 nM. With Cc1cc(O)c(-c2nnc(N[C@@H]3CCCN(CC(F)F)C3)n3cccc23)c(F)c1 [Compound I-511] the IC50 was 1 to 10 nM. [2H]C([2H])([2H])Oc1cc(O)c(-c2nnc(N[C@@H]3CCCN(C)C3)n3cccc23)c(F)c1 [Compound I-513] gave an IC50 of under 1 nM. Work on [2H]C([2H])([2H])Oc1cc(O)c(-c2nnc(N[C@@H]3CCCN(CC)C3)n3cccc23)c(F)c1 [Compound I-514, (R)-2-(4-((1-ethylpiperidin-3-yl)amino)pyrrolo[1,2-d][1,2,4]triazin-1-yl)-3-fluoro-5-(methoxy-d3)phenol] yielded an IC50 of under 1 nM. CCN1CCC[C@@H](Nc2nnc(-c3c(O)cc(C)cc3F)c3cc(C)nn23)C1 [Compound I-515] showed an IC50 of under 1 nM. FC(F)(F)c1ccc(-c2nnc(N[C@@H]3CCCN(C4CCOCC4)C3)n3cccc23)c(C(F)(F)F)c1 [Compound I-516] was tested, and the IC50 was 1 to 10 nM. FC(F)(F)c1ccc(-c2nnc(N[C@@H]3CCCN(C4CCOC4)C3)n3cccc23)c(C(F)(F)F)c1 (some centres unmarked) [Compound I-517] showed an IC50 of 1 to 10 nM. Oc1cc(Cl)ccc1-c1nnc(N[C@@H]2CCCOC2)n2cncc12 [Compound I-518, (R)-5-Chloro-2-(4-((tetrahydro-2H-pyran-3-yl)amino)imidazo[1,5-d][1,2,4]triazin-1-yl)phenol] was tested, and the IC50 was 1 to 10 nM. CN1CCC[C@@H](Nc2nnc(-c3ccc(OC(F)(F)F)cc3OC(F)F)c3cccn23)C1 [Compound I-519] was tested, and the IC50 was 1 to 10 nM. In the case of OCCN1CCC[C@@H](Nc2nnc(-c3ccc(OC(F)(F)F)cc3OC(F)F)c3cccn23)C1 [Compound I-520], the IC50 is reported as 1 to 10 nM. CN1C[C@H](F)C[C@@H](Nc2nnc(-c3ccc(OC(F)(F)F)cc3OC(F)F)c3cccn23)C1 [Compound I-521] gave an IC50 of 1 to 10 nM. In the case of C[C@]1(O)C[C@@H](Nc2nnc(-c3ccc(OC(F)(F)F)cc3OC(F)F)c3cccn23)C1 [Compound I-522], the IC50 is reported as 10 to 100 nM. For C[C@]1(O)C[C@@H](Nc2nnc(-c3ccc(OC(F)(F)F)cc3O)c3cccn23)C1 [Compound I-523], the IC50 was 10 to 100 nM. In the case of O[C@H]1CCC[C@@H](Nc2nnc(-c3ccc(C(F)(F)F)cc3OC(F)F)c3c(F)ccn23)C1 [Compound I-524], the IC50 is reported as 10 to 100 nM. In the case of C[C@]1(O)C[C@@H](Nc2nnc(-c3ccc(C(F)(F)F)cc3OC(F)F)c3c(F)ccn23)C1 [Compound I-525], the IC50 is reported as 10 to 100 nM. With Oc1cc(C(F)(F)F)ccc1-c1nnc(N[C@@H]2CCC[C@H](O)C2)n2ccc(F)c12 [Compound I-526] the IC50 was 10 to 100 nM. Work on C[C@]1(O)C[C@@H](Nc2nnc(-c3ccc(C(F)(F)F)cc3O)c3cncn23)C1 [Compound I-527] yielded an IC50 of 1 to 10 nM. Work on CN1C[C@H](F)C[C@@H](Nc2nnc(-c3ccc(C(F)(F)F)cc3O)c3cncn23)C1 [Compound I-528] yielded an IC50 of under 1 nM. With OCCN1CCC[C@@H](Nc2nnc(-c3ccc(Br)cc3O)c3cccn23)C1 [Compound I-529] the IC50 was 1 to 10 nM. CC(C)N1CCC[C@@H](Nc2nnc(-c3ccc(C(F)(F)F)cc3C(F)(F)F)c3cccn23)C1 [Compound I-530] gave an IC50 of under 1 nM. Work on CC(C)(O)CNc1nnc(-c2ccc(C(F)(F)F)cc2C(F)(F)F)c2cccn12 [Compound I-531] yielded an IC50 of 10 to 100 nM. C[C@]1(O)C[C@@H](Nc2nnc(-c3ccc(C(F)(F)F)cc3C(F)(F)F)c3cccn23)C1 [Compound I-532] was tested, and the IC50 was 1 to 10 nM. In the case of Cc1ccc(-c2nnc(N[C@@H]3CCCN(C)C3)n3cccc23)c(C(F)(F)F)c1 [Compound I-533], the IC50 is reported as 1 to 10 nM. CN1CCC[C@@H](Nc2nnc(-c3ccc(C4CC4)cc3C(F)(F)F)c3cccn23)C1 [Compound I-534] was tested, and the IC50 was under 1 nM. CCN1C[C@H](F)C[C@@H](Nc2nnc(-c3ccc(C(F)(F)F)cc3C(F)(F)F)c3cccn23)C1 [Compound I-535] showed an IC50 of 1 to 10 nM. CC(C)(O)CNc1nnc(-c2ccc(C(F)(F)F)cc2OC(F)F)c2cccn12 [Compound I-536] showed an IC50 of 10 to 100 nM. Work on C[C@]1(O)C[C@@H](Nc2nnc(-c3ccc(C(F)(F)F)cc3OC(F)F)c3cccn23)C1 [Compound I-537] yielded an IC50 of 1 to 10 nM. For CCN1C[C@H](F)C[C@@H](Nc2nnc(-c3ccc(C(F)(F)F)cc3OC(F)F)c3cccn23)C1 [Compound I-538], the IC50 was 1 to 10 nM. Compound Cc1cc(O)c(-c2nnc(NCC(C)(C)O)n3cccc23)c(F)c1 [Compound I-539] has an IC50 of 1 to 10 nM. CC(C)(O)CNc1nnc(-c2c(O)cc(C3CC3)cc2F)c2cccn12 [Compound I-540] was tested, and the IC50 was 10 to 100 nM. In the case of CN(C)C1CCC[C@@H](Nc2nnc(-c3c(O)cc(C4CC4)cc3F)c3cccn23)C1 (some centres unmarked) [Compound I-541], the IC50 is reported as under 1 nM. With Cc1ncc2c(-c3ccc(C(F)(F)F)cc3O)nnc(N[C@@H]3CCCN(C)C3)n12 [Compound I-543, (R)-2-(6-Methyl-4-((1-methylpiperidin-3-yl)amino)imidazo[1,5-d][1,2,4]triazin-1-yl)-5-(trifluoromethyl)phenol] the IC50 was under 1 nM. C[C@]1(O)C[C@@H](Nc2nnc(-c3ccc(Br)cc3O)c3ccnn23)C1 [Compound I-544] showed an IC50 of 1 to 10 nM. Work on CN1CCC[C@@H](Nc2nnc(-c3ccc(Br)cc3OCc3ccccc3)c3ccnn23)C1 [Compound I-545] yielded an IC50 of 10 to 100 nM. With CN1C[C@H](F)C[C@@H](Nc2nnc(-c3ccc(Br)cc3O)c3ccnn23)C1 [Compound I-546, 5-Bromo-2-(7-(((3R,5R)-5-fluoro-1-methylpiperidin-3-yl)amino)pyrazolo[1,5-d][1,2,4]triazin-4-yl)phenol] the IC50 was 1 to 10 nM. Compound Oc1cc(Br)ccc1-c1nnc(N[C@@H]2CCCOC2)n2nccc12 [Compound I-547] has an IC50 of 10 to 100 nM. Oc1cc(Br)ccc1-c1nnc(N[C@@H]2CCCN(CC(F)F)C2)n2nccc12 [Compound I-548] showed an IC50 of 1 to 10 nM. Work on C[C@]1(O)C[C@@H](Nc2nnc(-c3ccc(Cl)cc3O)c3cncn23)C1 [Compound I-549] yielded an IC50 of 1 to 10 nM. For COc1cc(O)c(-c2nnc(N[C@@H]3CCCN(C)C3)n3nc(C)cc23)c(F)c1 [Compound I-551], the IC50 was under 1 nM. CC(CO)N1CCC[C@H](Nc2nnc(-c3ccc(Br)cc3O)c3cccn23)C1 (some centres unmarked) [Compound I-552] was tested, and the IC50 was 1 to 10 nM. CC(C)N1CCC[C@H](Nc2nnc(-c3ccc(Cl)cc3O)c3cncn23)C1 [Compound I-553] was tested, and the IC50 was under 1 nM. CCN1CCC[C@H](Nc2nnc(-c3c(O)cc(C4CC4)cc3F)c3cc(C)nn23)C1 [Compound I-554] was tested, and the IC50 was under 1 nM. Work on CCN1CCC[C@@H](Nc2nnc(-c3c(O)cc(OC)cc3F)c3cc(C)nn23)C1 [Compound I-555] yielded an IC50 of under 1 nM. With CCN1CCC[C@@H](Nc2nnc(-c3ccc(C(F)(F)F)cc3OC(F)F)c3cc(C)nn23)C1 [Compound I-556] the IC50 was 1 to 10 nM. CN1C[C@H](F)C[C@@H](Nc2nnc(-c3ccc(Cl)cc3O)c3cncn23)C1 [Compound I-557] gave an IC50 of 1 to 10 nM. Oc1cc(Cl)ccc1-c1nnc(N[C@@H]2CCCN(CC(F)(F)F)C2)n2cncc12 [Compound I-558] gave an IC50 of 1 to 10 nM. Oc1cc(Cl)ccc1-c1nnc(N[C@@H]2CCCN(CC(F)F)C2)n2cncc12 [Compound I-559] showed an IC50 of 1 to 10 nM.

Source: patent US20240262806A1, “INHIBITORS OF NLRP3” (PTC THERAPEUTICS, INC., priority 2021, published 2024)
